# Data published in patent publication US20190367737A1, “CELL-PENETRATING FLUORESCENT DYES WITH SECONDARY ALCOHOL FUNCTIONALITIES” (Max-Planck-Gesellschaft zur foerderung der Wissenschaften …, priority 2016, published 2019).
# Where “and” joins values, the source holds several entries; their conditions need not be identical. Equal values may be shown once. Read-outs that look alike come from different tables or passages of the source.
# Experiments:
# [1] = Absorption, emission and fluorescence quantum yield of the dyes; assay type: physicochemical; conditions: for fluorescence quantum yield: in PBS / aqueous buffers; for fluorescence quantum yield relative to Oxazine 1: PBS 7.4, Oxazine 1 Φfl=0.14 in ethanol
# Description: Absorption spectra were recorded with a Varian Cary 4000 UV-Vis double-beam spectrophotometer (Agilent Technologies, USA). For the determination of the absorption spectra, quartz cells with a 1 cm path length were used. Emission spectra and fluorescence quantum yield were obtained on a Quantaurus-QY Absolute PL quantum yield spectrometer C11347 (Hamamatsu Photonics, Japan) or on a Varian Cary Eclipse fluorescence spectrometer (Agilent Technologies, USA).
# [2] = Formation and stability of the NHS ester; assay type: physicochemical
# Description: • Three stock solutions (A, B and C) were prepared. Solution A: 22 mg HATU (1-[bis(dimethylamino)methylene]-1H-1,2,3-triazolo[4,5-b]pyridinium 3-oxid hexafluorophosphate) in dry DMF (0.10 mL); solution B: Et3N (10 mg) in dry DMF (0.10 mL); solution C: N-hydroxysuccinimide (19 mg) in dry DMF (0.10 mL). To a solution of dye 5 (1.7 mg, 2.6 μmol) in dry DMF (0.10 mL), solutions A, B and C were added successively (14 μL of each solutions) under argon, and the mixture was stirred for 30 min at room temperature. HPLC analysis indicated the conversion degree of 94-95%. […] After removing DMF in vacuo, amide 5-Halo was isolated by preparative HPLC (˜1 mg, 46%), dissolved in DMSO (400 μL), and this stock-solution was used (after dilution with aqueous PBS to 1-5 μM) in labeling experiments with living cells (see section with imaging results). ESI-MS (C41H44C1F6N308, 855.27), positive mode: m/z (rel. int., %)=856 (100) [M+H]^+. HR-MS, ESI (positive mode): m/z=878.2591 (found [M+Na]^+), 878.2613 (calc.).
# [3] = cited from earlier work
# [4] = Solubility in water and organic solvents; assay type: physicochemical; conditions: water, aqueous solutions, alcohols, DMSO, DMF, organic solvents as stated
# [5] = system: vimentin-HaloTag fusion protein in U2OS cells; assay: Live-cell labeling, confocal and STED imaging, U2OS cells; assay type: cell-based; conditions: 1 μM, 20 minutes at 37° C.
# Description: (§1) Either HeLa or U2OS cells were used. Cells were grown on #1.5 coverslips and cultured at 37° C. with 5% CO2 in DMEM (Dulbecco's modified Eagle's medium) supplemented with 10% FBS (fetal bovine serum), 1% sodium pyruvate and 1% penicillin/streptomycin. The U2OS cell line is a stable cell line which has a stable expression of the vimentin-HaloTag fusion protein (M. Ratz, I. Testa, S. W. Hell, S. Jakobs, Sci. Rep. 2015, 5, 9592). For the expression of vimentin-HaloTag fusion protein in HeLa cells, cells were transfected with 3 μg DNA/well using TurboFect™ Transfection Reagent (Fermentas/Thermo Scientific™, Life Technologies brand) in a 6 well plate. […]
# (§2) Fluorescence detection was done in two spectral detection channels, 605-625 nm and 650-720 nm. […]
# 14a-Halo was excited with a pulsed 561 nm laser and fluorescence was detected in both detection windows: 605-625 nm and 650-720 nm. […] For the STED image the fluorescence counts of 3 scans per line were accumulated with a pixel dwell time of 15 μs. […]
# 6-ROX-Halo was excited with a pulsed 561 nm laser and fluorescence was detected in two detection windows: 605-625 nm and 650-720 nm. […] For the STED image the fluorescence counts of 3 scans per line were accumulated with a pixel dwell time of 15 μs. […]
# 19-Halo was excited with a pulsed 640 nm laser and fluorescence was detected from 650-720 nm. […]
# [6] = D0.5 in 1,4-dioxane/water (closing into colorless spirolactone form); assay type: physicochemical
# [7] = system: tubulin filaments in HeLa cells; assay: Live-cell tubulin labeling, confocal and STED imaging, HeLa cells; assay type: cell-based; conditions: 1-5 μM, 20 minutes at 37° C.
# Description: as §1, §2
# 19-Tubulin was excited with a pulsed 640 nm laser and fluorescence was detected from 650-720 nm. […] For the STED image the fluorescence counts of 4 scans per line were accumulated with a pixel dwell time of 7 μs. […]
# 33-Tubulin was excited with a pulsed 640 nm laser and fluorescence was detected from 650-720 nm. […] The STED image was recorded with a pixel dwell time of 15 μs. […]
# [8] = aqueous PBS buffer, parent Q-rhodamine
# [9] = commercial dyes, solvent not stated
# [10] = aqueous solutions, dye 5 isomer 3
compound,measurement,setting,value
[CH3][Ge]1([CH3])[c]2cc(N3CC(O)C3)ccc2C2(OC(=O)c3ccc(C(=O)NCCOCCOCCCCCCCl)cc32)c2ccc(N3CC(O)C3)c[c]21 [Compound 33-Halo],absorption maximum λmax,[1]; PBS buffer pH 7.4,639 nm
same,emission maximum λem,[1]; PBS buffer pH 7.4,660 nm
5(6)-carboxy-Q-rhodamine,stability of N-hydroxysuccinimidyl (NHS) ester,[2],does not form a stable N-hydroxysuccinimidyl ester
same,absorption maximum,[3]; [8],540 nm
same,emission maximum,[3]; [8],561 nm
same,extinction coefficient ε,[3]; [8],70 000 M^−1 cm^−1
same,fluorescence quantum yield,[3]; [8],0.79
"COc1cc2c(c(Cl)c1O)Oc1c(cc(OC)c(O)c1Cl)C21OC(=O)c2ccc(C(=O)O)cc21 [Compound 6-JOE, 6-JOE]",absorption maximum,[3]; [9],520 nm
same,emission maximum,[3]; [9],548 nm
same,extinction coefficient ε,[3]; [9],75 000 M^−1 cm^−1
"O=C(O)c1ccc(C(=O)[O-])c(C2=c3cc4c(cc3Oc3cc5c(cc32)CC(O)CN5CC(F)(F)F)=[N+](CC(F)(F)F)CC(O)C4)c1 (stereo not drawn) [Compound 5, N,N′-Bis-(2,2,2-trifluoroethyl)-6′-carboxy-Q-rhodamine-β,β′-diol]",stability of N-hydroxysuccinimidyl (NHS) ester,[2],forms a stable NHS ester
same,absorption maximum λmax,[1]; [10],532 nm
same,emission maximum λmax,[1]; [10],553 nm
same,extinction coefficient ε,[1]; [10],56000 M⁻¹ cm⁻¹
same,"fluorescence quantum yield Φfl, absolute value","[1]; aqueous solutions, excitation at 488 nm, dye 5 isomer 3",0.89
same,solubility,[4],water-soluble
same,solubility,[4]; listed as 5-OH,much better soluble
CN(C)c1ccc2[c](c1)[Ge]([CH3])([CH3])[c]1cc(N(C)C)ccc1C21OC(=O)c2ccc(C(=O)NCCOCCOCCCCCCCl)cc21 [Compound 19-Halo],imaging performance in living cells (confocal and STED),[5],high contrast images
"C[Si]1(C)c2cc(N3CCC3)ccc2C2(OC(=O)c3ccccc32)c2ccc(N3CCC3)cc21 [JF646, reference compound]",fluorescence quantum yield,[1],0.54
"CN(C)c1ccc2c(c1)[Si](C)(C)c1cc(N(C)C)ccc1C21OC(=O)c2ccccc21 [SiR, reference compound]","D0.5 in 1,4-dioxane/water",[6],64.5
same,absorption maximum λmax,[1]; PBS buffer pH 7.4,645 nm
same,emission maximum λem,[1]; PBS buffer pH 7.4,661 nm
same,extinction coefficient ε,[1]; PBS buffer pH 7.4,93000 M⁻¹ cm⁻¹
same,fluorescence quantum yield,[1],0.41
[CH3][Ge]1([CH3])[c]2cc(N3CC(O)C3)ccc2C2(OC(=O)c3ccc(C(=O)O)cc32)c2ccc(N3CC(O)C3)c[c]21 [Compound 33],imaging performance in living cells (confocal and STED),[7],higher brightness
same,absorption maximum λmax,[1]; PBS buffer pH 7.4,631 nm
same,emission maximum λem,[1]; PBS buffer pH 7.4,651 nm
same,extinction coefficient ε,[1]; PBS buffer pH 7.4,61000 M⁻¹ cm⁻¹
same,"fluorescence quantum yield Φfl, absolute value",[1]; PBS buffer pH 7.4,0.60
same,fluorescence quantum yield,[1],0.60
"N-Hydroxysuccinimidyl eater of N,N′-bis-(2,2,2-trifluoro-ethyl)-6′-carboxy-Q-rhodamine-β,β′-diol [Compound 5-NHS]",stability of N-hydroxysuccinimidyl (NHS) ester,[2],stable
O=C(O)c1ccccc1C1=c2cc3c4c(c2Oc2c1cc1c5c2CCCN5CCC1)CCC[N+]=4CCC3.[Cl-] [Rhodamine 101],fluorescence quantum yield,[3]; in both organic and aqueous solutions,more than 0.90
C[Si]1(C)c2cc(N3CC(O)C3)ccc2C2(OC(=O)c3ccc(C(=O)O)cc32)c2ccc(N3CC(O)C3)cc21 [Compound 42],"D0.5 in 1,4-dioxane/water",[6],72.4
same,fluorescence quantum yield relative to Oxazine 1,[1],0.42
same,absorption maximum λmax,[1]; PBS buffer pH 7.4,641 nm
same,emission maximum λem,[1]; PBS buffer pH 7.4,662 nm
same,extinction coefficient ε,[1]; PBS buffer pH 7.4,51500 M⁻¹ cm⁻¹ and 51000 M⁻¹ cm⁻¹
same,fluorescence quantum yield,[1],0.42
CN(C)c1ccc2[c](c1)[Ge]([CH3])([CH3])[c]1cc(N(C)C)ccc1C21OC(=O)c2ccc(C(=O)O)cc21 [Compound 19],"D0.5 in 1,4-dioxane/water",[6],65.2
same,fluorescence quantum yield relative to Oxazine 1,[1],0.43
same,absorption maximum λmax,[1]; PBS buffer pH 7.4,634 nm
same,emission maximum λem,[1]; PBS buffer pH 7.4,655 nm
same,extinction coefficient ε,[1]; PBS buffer pH 7.4,97000 M⁻¹ cm⁻¹
same,fluorescence quantum yield,[1],0.43
